Source: ChEMBL document CHEMBL1201862, “PubChem BioAssay data set” (2004)
Each block holds one molecule with its values, some of them ahead of it. Active and inactive are the calls of the source.

How the values were obtained:
[1] = molecular target: T1, Intestinal-type alkaline phosphatase (Homo sapiens, UniProt P09923); experiment: human intestinal alkaline phosphatase activators, dose response, biochemical, luminescence, uHTS hits (AID 463120); assay type: functional
[2] = molecular target: T1, Intestinal-type alkaline phosphatase; experiment: human IAP activators, dose response, biochemical, luminescent, uHTS hits, set 2 (AID 488817); assay type: functional;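 note: potency of activators that raise enzyme activity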
[3] = molecular target: T2, Alkaline phosphatase, tissue-nonspecific isozyme (Homo sapiens, UniProt P05186); experiment: TNAP enzyme activators, dose response, selectivity assay for human IAP activator project, biochemical, TNAP isozyme, human IAP uHTS hits (AID 488886); assay type: functional;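 note: potency of compounds raising TNAP activity as a selectivity check on IAP activators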
T2 sequence (P05186 whole entry): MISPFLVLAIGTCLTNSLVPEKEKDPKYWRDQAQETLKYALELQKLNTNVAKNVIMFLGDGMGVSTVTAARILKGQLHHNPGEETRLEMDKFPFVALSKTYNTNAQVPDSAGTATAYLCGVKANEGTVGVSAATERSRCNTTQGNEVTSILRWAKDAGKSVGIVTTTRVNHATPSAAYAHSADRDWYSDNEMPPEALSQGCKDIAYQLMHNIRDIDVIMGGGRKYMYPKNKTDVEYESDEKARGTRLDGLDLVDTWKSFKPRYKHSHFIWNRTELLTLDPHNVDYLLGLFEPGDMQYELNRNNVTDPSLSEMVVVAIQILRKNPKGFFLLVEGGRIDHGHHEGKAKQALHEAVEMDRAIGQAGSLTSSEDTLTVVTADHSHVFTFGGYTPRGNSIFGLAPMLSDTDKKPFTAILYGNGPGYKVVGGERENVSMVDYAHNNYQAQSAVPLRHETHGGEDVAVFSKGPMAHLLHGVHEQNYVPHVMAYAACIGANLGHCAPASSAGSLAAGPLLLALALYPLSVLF

[4] = molecular target: T3, Intestinal-type alkaline phosphatase (Mus musculus, UniProt P24822); experiment: PubChem AID 488875; assay type: functional
[5] = molecular target: T3, Intestinal-type alkaline phosphatase; experiment: PubChem AID 488874; assay type: functional
[6] = tested on: Trypanosoma cruzi; experiment: growth inhibition of intracellular Trypanosoma cruzi, dose response, cell-based, plate reader, dry powder, set 3 (AID 493197); assay type: functional
[7] = cytotoxicity in NIH/3T3 mouse fibroblasts, dose response, cytotoxicity control, cell-based, mouse embryonic fibroblasts, dry powder, set 2 (AID 493247); assay type: functional; settings: Fibroblast
[8] = molecular target: Melanin-concentrating hormone receptor 1 (Homo sapiens, UniProt Q99705); experiment: Late-stage fluorescence-based counterscreen for antagonists of the G-protein coupled receptor 7 (GPR7): cell-based dose response assay to identify antagonists of the melanin-concentrating hormone receptor 1 (MCHR1). [Related pubchem assays (depositor defined):AID1861, AID1880, AID1952, AID2148, AID2251, AID2257, AID485339]; assay type: functional;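 note: stimulated with 30 nM MCH peptide agonist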
[9] = molecular target: Neuropeptides B/W receptor type 1 (Homo sapiens, UniProt P48145); experiment: GPR7 antagonist potency, late-stage follow-up, cell-based, fluorescence, dose response (AID 463251); assay type: functional
[10] = molecular target: T4, Microphthalmia-associated transcription factor (Homo sapiens, UniProt O75030); experiment: TRPM1 promoter luciferase signal decrease, dose response, MITF inhibitor project, cell-based, SK-MEL-5, cherry-picked, set 3 (AID 493073); assay type: functional
T4 sequence (O75030 whole entry): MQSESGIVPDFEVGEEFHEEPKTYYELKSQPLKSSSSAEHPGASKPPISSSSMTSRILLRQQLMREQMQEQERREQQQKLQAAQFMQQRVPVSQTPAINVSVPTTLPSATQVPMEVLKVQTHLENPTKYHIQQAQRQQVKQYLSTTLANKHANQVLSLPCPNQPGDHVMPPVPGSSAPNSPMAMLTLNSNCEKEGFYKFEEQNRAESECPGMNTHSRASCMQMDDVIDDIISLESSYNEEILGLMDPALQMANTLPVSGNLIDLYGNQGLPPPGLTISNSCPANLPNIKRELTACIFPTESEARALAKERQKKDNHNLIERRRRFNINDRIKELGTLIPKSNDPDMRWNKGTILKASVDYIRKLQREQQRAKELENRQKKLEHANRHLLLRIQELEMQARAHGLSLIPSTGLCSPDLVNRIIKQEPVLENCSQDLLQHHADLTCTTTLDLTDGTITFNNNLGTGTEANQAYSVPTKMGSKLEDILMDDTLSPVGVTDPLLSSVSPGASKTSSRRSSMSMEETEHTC

[11] = molecular target: T4, Microphthalmia-associated transcription factor; experiment: MITF Measured in Cell-Based System Using Plate Reader - 2084-01_Inhibitor_DoseNoFile_CherryPick_Activity_Set2. [Related pubchem assays (depositor defined):AID488944]; assay type: functional
[12] = molecular target: T4, Microphthalmia-associated transcription factor; experiment: TRPM1 promoter luciferase signal decrease, dose response, MITF inhibitor project, cell-based, SK-MEL-5, cherry-picked, set 4 (AID 493102); assay type: functional
[13] = molecular target: Sphingosine 1-phosphate receptor 4 (Homo sapiens, UniProt O95977); experiment: S1P4 receptor agonists, human, late-stage follow-up, cell-based, fluorescence, synthesized compounds (AID 463107); assay type: functional
[14] = molecular target: Wee1-like protein kinase (Homo sapiens, UniProt P30291); experiment: G2/M cell cycle arrest in HeLa, late-stage follow-up, mechanism study for Wee1 degradation inhibitor project, FACS, panel member Wee1 Degradation (AID 2088)
[15] = molecular target: G2/mitotic-specific cyclin-B1 (Homo sapiens, UniProt P14635); experiment: G2/M cell cycle arrest in HeLa, late-stage follow-up, mechanism study for Wee1 degradation inhibitor project, FACS, panel member Cyclin B Degradation (AID 2088)
[16] = molecular target: Voltage-dependent T-type calcium channel subunit alpha-1H (Homo sapiens, UniProt O95180); experiment: Cav3.2 T-type channel inhibitors, cell-based, synthetic library set 1, calcium flux (AID 493022); assay type: functional
Sequence of Voltage-dependent T-type calcium channel subunit alpha-1H (O95180 whole entry): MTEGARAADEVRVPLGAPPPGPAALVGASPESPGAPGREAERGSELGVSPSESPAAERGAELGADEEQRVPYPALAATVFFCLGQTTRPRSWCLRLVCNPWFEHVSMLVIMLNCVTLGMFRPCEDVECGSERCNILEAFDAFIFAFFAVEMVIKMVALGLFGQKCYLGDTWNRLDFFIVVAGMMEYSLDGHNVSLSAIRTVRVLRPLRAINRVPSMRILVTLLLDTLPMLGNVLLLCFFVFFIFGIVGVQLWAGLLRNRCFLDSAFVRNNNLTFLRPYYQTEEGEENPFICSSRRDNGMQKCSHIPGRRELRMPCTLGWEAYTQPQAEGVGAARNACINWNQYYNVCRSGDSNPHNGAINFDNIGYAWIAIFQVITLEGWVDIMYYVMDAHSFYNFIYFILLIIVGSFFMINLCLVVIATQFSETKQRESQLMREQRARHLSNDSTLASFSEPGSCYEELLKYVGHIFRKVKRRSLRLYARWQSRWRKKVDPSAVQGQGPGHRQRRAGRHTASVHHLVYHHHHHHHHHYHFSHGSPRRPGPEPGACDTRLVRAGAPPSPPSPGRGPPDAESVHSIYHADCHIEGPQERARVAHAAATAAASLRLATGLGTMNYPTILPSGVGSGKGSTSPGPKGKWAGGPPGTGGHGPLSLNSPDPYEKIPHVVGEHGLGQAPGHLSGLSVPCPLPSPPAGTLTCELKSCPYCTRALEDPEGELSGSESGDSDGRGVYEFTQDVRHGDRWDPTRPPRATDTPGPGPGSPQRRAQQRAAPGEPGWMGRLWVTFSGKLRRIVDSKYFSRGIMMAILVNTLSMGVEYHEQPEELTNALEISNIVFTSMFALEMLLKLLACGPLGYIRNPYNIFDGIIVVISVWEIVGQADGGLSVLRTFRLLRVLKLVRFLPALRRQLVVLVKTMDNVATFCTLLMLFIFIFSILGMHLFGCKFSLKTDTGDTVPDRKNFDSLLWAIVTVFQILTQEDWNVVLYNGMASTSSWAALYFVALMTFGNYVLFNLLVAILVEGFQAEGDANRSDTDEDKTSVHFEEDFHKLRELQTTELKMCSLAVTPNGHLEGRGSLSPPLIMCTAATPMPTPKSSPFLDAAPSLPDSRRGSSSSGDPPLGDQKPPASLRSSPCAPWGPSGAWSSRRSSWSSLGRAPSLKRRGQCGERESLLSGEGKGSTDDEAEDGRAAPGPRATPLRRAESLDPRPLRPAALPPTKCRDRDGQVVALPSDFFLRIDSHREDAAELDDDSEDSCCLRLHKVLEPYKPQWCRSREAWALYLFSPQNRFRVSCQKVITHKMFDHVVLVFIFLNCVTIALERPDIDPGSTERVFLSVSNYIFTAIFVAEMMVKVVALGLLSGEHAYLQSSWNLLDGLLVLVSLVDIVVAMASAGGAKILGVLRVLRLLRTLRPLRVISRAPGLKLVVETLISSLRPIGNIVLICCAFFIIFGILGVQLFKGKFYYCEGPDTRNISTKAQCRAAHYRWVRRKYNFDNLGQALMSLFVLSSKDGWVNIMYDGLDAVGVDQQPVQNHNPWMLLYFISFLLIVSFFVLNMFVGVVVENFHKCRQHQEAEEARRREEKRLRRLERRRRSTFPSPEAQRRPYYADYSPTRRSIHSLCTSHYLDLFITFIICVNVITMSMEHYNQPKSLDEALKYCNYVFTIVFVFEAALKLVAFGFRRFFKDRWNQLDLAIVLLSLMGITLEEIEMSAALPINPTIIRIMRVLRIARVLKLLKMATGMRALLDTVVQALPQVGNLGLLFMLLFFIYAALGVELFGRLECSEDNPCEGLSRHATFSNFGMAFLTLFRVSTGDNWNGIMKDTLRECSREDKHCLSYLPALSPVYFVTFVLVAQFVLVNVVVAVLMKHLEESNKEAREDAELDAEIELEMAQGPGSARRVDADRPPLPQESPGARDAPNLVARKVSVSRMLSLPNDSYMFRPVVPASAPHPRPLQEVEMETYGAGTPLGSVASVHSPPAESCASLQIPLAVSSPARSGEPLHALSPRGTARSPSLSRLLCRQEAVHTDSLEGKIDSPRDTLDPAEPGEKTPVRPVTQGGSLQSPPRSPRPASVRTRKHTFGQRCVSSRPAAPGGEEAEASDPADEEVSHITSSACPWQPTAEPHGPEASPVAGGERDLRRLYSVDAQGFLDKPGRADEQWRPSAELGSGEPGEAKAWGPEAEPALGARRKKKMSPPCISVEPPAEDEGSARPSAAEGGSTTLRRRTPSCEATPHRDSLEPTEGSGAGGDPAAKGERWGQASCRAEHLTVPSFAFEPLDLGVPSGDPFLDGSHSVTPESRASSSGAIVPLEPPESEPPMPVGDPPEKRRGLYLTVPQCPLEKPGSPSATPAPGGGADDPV

T1 sequence (P09923 whole entry): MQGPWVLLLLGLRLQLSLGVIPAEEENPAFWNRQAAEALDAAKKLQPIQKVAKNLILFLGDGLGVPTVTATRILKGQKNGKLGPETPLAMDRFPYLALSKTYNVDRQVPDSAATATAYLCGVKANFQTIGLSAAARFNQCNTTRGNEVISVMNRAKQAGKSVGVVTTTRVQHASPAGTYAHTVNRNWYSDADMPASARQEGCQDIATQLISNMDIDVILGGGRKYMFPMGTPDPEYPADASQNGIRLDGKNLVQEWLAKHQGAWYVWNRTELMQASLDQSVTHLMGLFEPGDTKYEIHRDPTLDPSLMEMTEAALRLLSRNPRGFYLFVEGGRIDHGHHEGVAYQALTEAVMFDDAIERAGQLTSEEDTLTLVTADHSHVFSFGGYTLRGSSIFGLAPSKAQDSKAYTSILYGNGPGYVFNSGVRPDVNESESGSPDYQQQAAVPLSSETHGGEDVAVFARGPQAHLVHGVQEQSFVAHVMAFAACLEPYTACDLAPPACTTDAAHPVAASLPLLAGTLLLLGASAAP
T3 sequence (P24822 whole entry): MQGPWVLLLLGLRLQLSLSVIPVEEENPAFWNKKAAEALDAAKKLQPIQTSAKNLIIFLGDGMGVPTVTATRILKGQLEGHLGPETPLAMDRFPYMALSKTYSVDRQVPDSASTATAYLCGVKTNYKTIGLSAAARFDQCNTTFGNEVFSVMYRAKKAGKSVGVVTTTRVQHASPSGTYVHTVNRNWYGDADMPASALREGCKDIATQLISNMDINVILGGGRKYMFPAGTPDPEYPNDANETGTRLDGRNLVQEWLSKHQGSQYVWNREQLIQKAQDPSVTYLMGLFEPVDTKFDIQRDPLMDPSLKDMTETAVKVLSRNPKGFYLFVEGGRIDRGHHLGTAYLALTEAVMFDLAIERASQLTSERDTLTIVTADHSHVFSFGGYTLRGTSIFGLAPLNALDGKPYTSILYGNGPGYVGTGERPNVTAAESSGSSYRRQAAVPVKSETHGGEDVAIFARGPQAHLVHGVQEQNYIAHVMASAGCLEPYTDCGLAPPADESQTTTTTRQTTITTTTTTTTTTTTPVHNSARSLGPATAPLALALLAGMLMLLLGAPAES
Sequence of Melanin-concentrating hormone receptor 1 (Q99705 whole entry): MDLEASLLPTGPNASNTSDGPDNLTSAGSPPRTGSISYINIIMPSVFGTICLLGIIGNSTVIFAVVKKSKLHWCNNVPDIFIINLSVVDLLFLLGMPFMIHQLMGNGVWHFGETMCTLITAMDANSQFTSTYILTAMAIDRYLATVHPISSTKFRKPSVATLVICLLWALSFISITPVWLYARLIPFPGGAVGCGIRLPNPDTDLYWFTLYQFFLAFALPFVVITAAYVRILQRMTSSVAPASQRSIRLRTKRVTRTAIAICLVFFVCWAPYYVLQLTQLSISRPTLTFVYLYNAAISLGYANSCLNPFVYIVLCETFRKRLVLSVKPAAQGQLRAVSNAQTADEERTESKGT
Sequence of Neuropeptides B/W receptor type 1 (P48145 whole entry): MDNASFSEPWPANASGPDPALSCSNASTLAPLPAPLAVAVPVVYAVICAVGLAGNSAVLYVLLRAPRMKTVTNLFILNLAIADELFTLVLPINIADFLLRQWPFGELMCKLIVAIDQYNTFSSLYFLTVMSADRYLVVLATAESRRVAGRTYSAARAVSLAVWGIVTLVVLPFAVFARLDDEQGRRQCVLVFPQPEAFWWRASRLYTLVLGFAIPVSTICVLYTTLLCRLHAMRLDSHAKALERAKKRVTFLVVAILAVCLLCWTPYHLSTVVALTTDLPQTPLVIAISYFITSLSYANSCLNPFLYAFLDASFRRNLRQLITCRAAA
Sequence of Sphingosine 1-phosphate receptor 4 (O95977 whole entry): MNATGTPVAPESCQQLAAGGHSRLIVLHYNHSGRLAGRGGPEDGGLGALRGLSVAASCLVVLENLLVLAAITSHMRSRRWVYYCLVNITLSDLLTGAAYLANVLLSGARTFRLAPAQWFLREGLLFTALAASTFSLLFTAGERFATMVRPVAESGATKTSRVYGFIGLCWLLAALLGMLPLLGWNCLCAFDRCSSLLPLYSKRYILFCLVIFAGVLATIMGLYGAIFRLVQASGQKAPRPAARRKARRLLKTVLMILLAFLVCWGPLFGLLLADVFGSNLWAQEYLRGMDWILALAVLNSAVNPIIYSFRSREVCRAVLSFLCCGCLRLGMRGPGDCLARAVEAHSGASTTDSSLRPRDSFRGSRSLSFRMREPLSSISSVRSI
Sequence of G2/mitotic-specific cyclin-B1 (P14635 whole entry): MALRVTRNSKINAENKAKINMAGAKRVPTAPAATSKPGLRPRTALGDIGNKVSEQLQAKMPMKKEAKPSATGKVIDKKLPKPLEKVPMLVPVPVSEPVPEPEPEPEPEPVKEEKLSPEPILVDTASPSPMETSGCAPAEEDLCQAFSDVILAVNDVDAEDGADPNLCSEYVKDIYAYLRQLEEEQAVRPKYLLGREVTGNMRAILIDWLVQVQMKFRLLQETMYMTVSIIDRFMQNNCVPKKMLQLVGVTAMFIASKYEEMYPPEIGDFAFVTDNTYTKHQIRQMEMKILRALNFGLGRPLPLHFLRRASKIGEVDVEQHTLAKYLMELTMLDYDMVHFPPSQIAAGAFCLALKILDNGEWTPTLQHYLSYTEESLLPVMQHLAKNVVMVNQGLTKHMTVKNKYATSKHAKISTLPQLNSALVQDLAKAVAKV

Compound: CC(C)Oc1ccc(C(=O)Nc2nnc[nH]2)cc1
EC50 [1]: 11.4 µM (active)
EC50 [2]: 33 µM (active)
EC50 [3]: 22.9 µM (active)
EC50 [4]: > 100 µM (inactive)

Compound: COc1ccc(CCN(C)C(=O)C2CCCN(Cc3ccccc3)C2)cc1OC (centres undefined)
AC50 [6]: 1.4 µM (active)
AC50 [7]: 47.4 µM (active)

Compound: Cc1cc(O)nc(-n2nc(C)cc2NC(=O)/C=C/c2ccccc2)n1
EC50 [14]: > 16.6 µM (active)
EC50 [15]: > 49.7 µM (inactive)

Compound: CC(Oc1ccccc1)C(=O)Nc1nnc(-c2ccc3c(c2)OCO3)o1 (centres undefined)
EC50 [16]: 10 µM (active)

Continued, values first:

IC50 [5]: 74.2 µM (active)
EC50 [1]: 12.1 µM (active)
EC50 [2]: 16.4 µM (active)
EC50 [3]: 16.4 µM (active)
Compound: O=C(NNC(=S)NC(=O)c1ccccc1)c1cccnc1

IC50 [8]: 12.6 µM (inactive)
IC50 [9]: 7 µM (active)
Compound: COc1ccc(Oc2cnn(-c3ccc(C)cc3)c(=O)c2Cl)cc1

AC50 [10]: > 350 µM (inactive)
AC50 [11]: > 350 µM (inactive)
AC50 [12]: > 350 µM (inactive)
Compound: O=C(COC(=O)C1=COCCO1)Nc1c(F)cccc1F

EC50 [13]: > 50 µM (inactive)
Compound: Cc1ccc(OCCOc2ccc(Oc3ccccc3)cc2)c([N+](=O)[O-])n1
